Test results taken from patent EP2990415B1, “Cyclic beta defensins analogs for the treatment of infections” (Ceinge Biotecnologie Avanzate S.C. a R.L., priority 2014, dated 2016).
Bridge positions count the residues as written; N and C are the ends. Ends that are not written are not given here. Peptide text beside a SMILES is read from it.

Tests used:
[1] = tested on: P. aeruginosa, E. coli and E. faecalis; type: cell-based
Description: (§1) A CFU assay of the antibacterial activity of the peptides of the present invention against Pseudomonas aeruginosa ATCC (American Type Culture Collection, Manassas, VA, USA) 27853, Enterococcus faecalis ATCC 29212 and Escherichia coli ATCC 25922 was performed as follows. The strains were grown in aerobic conditions in tryptic soy broth (Difco Laboratories, Detroit, MI, USA) at 37°C and incubated in the presence of hBDs for 2 h at 37°C. We used two concentrations of peptides, i.e., 2.5 µM and 12.5 µM. For salt-dependence assay, 0, 50, 100 and 200 mM NaCl were included in the incubation buffer as previously described (1). Each assay was performed in triplicate. Bactericidal activity (mean and SD of three assays) is expressed as the ratio between colonies counted and the number of colonies on a control plate. The minimal inhibitory concentration (MIC) of the peptide SEQ ID No. 25 was determined with a modified version of the microbroth dilution assay of the National Committee for Clinical Laboratory Standards using a final inoculum of 10^5 CFU/ml. The following peptide concentrations were used: 100.0, 50.0, 25.0, 12.5, 6.25, 3.12 and 1.56 µM.

HSV-1 [2] = conditions: reported elsewhere; cited from earlier work
[3] = tested on: Enterococcus faecalis ATCC 29212; type: cell-based; conditions: 12.5 µM
Description: as §1

[4] = tested on: Pseudomonas aeruginosa ATCC 27853; type: cell-based; conditions: 12.5 µM
Description: as §1

[5] = tested on: Escherichia coli ATCC 25922; type: cell-based; conditions: 12.5 µM
Description: as §1

HSV-1 [6] = test: Inhibition of HSV infectivity on Vero cell monolayers (co-exposure, virus pre-exposure, cell pre-exposure, post-exposure); type: cell-based
Description: Vero cells were grown in Dulbecco's modified Eagle's medium (DMEM) supplemented with 10% fetal calf serum. HSV-1 carrying a lacZ gene driven by the cytomegalovirus (CMV) IE-1 promoter to express beta-galactosidase was propagated as described elsewhere (Galdiero S, Falanga A, Vitiello M, D'Isanto M, Cantisani M, Kampanaraki A, Benedetti E, Browne H, Galdiero M. Peptides. 2008 Sep;29(9):1461-71). All experiments were conducted in parallel with no-peptide controls. […] Non-penetrated viruses were inactivated by citrate buffer at pH 3.0. Monolayers were fixed, stained with 5-bromo-4-chloro-3-indolyl-beta-D-galactopyranoside (X-gal) and plaque numbers were scored. Experiments were performed in triplicate and the percentage of inhibition was calculated with respect to no-peptide control experiments; ii) For "virus pre-exposure" experiments, […] monolayers; iii) For "cell pre-exposure" experiments, Vero cells were incubated with 20 µM of peptides for 30 min at 4°C and infected with serial dilutions of HSV-1 for 45 min at 37°C; and iv) For "post-exposure" experiments, Vero cell monolayers were incubated with virus for 45 minutes at 37°C and afterwards the peptide was added to the inoculum followed by an additional incubation period of 30 minutes at 37°C.
The antiviral activity was evaluated in co-exposure experiments (with cell, virus, and peptide at zero time), virus pre-exposure experiments (virus plus peptide before cell infection), cell pre-exposure experiments (cell plus peptide before virus infection) and post-treatment (cell plus virus before peptide addition) in order to evaluate in which phase, if any, the peptides could inhibit virus infectivity. […] Both in the co-exposure and virus pre-treatment experiments, the oxidized SEQ. […]

CC[C@H](C)[C@@H]1NC(=O)[C@H](CCCCN)NC(=O)[C@H]([C@@H](C)O)NC(=O)[C@H](Cc2ccccc2)NC(=O)[C@H]([C@@H](C)CC)NC(=O)[C@@H]2CCCN2C(=O)[C@@H](N)CSSC[C@@H](C(=O)NCC(=O)NCC(=O)N[C@@H](CCCNC(=N)N)C(=O)N[C@@H](CCCNC(=N)N)C(=O)N[C@@H](CCCCN)C(=O)N[C@@H](CCCCN)C(N)=O)NC(=O)[C@H]([C@@H](C)O)NC(=O)CNC(=O)[C@H](CCC(N)=O)NC1=O [SEQ ID No. 25] (H-CPIFTKIQGTCGGRRKK-NH2; disulfide 1-11)
MIC [1]: 12.5 to 25.0 µM

GIINTLQKYYCRVRGGRCAVLSCLPKEEQIGKCSTRGRKCCRRKK (disulfide 11-40, 18-33, 23-41 (inferred)) [hBD3]
antiviral activity of oxidized versus reduced form (HSV-1 [2]): the same antiviral activity | antibacterial effect [3]: strong antibacterial effect | antibacterial effect [4]: strong antibacterial effect | antibacterial effect [5]: strong antibacterial effect | Peptide inhibition (HSV-1 [6]; Cell Pre-treatment at 4°C, 1 uM): 53.5 | Peptide inhibition (HSV-1 [6]; Cell Pre-treatment at 4°C, 5 uM): 41 | Peptide inhibition (HSV-1 [6]; Cell Pre-treatment at 4°C, 10 uM): 27 | Peptide inhibition (HSV-1 [6]; Cell Pre-treatment at 4°C, 20 uM): 22 | Peptide inhibition (HSV-1 [6]; Cell Pre-treatment at 4°C, 50 uM): 18 | Peptide inhibition (HSV-1 [6]; Cell Pre-treatment at 4°C, 150 uM): 1 | Peptide inhibition (HSV-1 [6]; Cell Pre-treatment at 4°C, 1000 uM): 5 | Peptide inhibition (HSV-1 [6]; Co-treatment at 37°C, 1 uM): 79 | Peptide inhibition (HSV-1 [6]; Co-treatment at 37°C, 5 uM): 60 | Peptide inhibition (HSV-1 [6]; Co-treatment at 37°C, 10 uM): 43 | Peptide inhibition (HSV-1 [6]; Co-treatment at 37°C, 20 uM): 32 | Peptide inhibition (HSV-1 [6]; Co-treatment at 37°C, 50 uM): 17.5 | Peptide inhibition (HSV-1 [6]; Co-treatment at 37°C, 150 uM): 6.5 | Peptide inhibition (HSV-1 [6]; Co-treatment at 37°C, 1000 uM): 9 | Peptide inhibition (HSV-1 [6]; Virus Pre-treatment at 37°C, 1 uM): 64 | Peptide inhibition (HSV-1 [6]; Virus Pre-treatment at 37°C, 5 uM): 52 | Peptide inhibition (HSV-1 [6]; Virus Pre-treatment at 37°C, 10 uM): 33 | Peptide inhibition (HSV-1 [6]; Virus Pre-treatment at 37°C, 20 uM): 31 | Peptide inhibition (HSV-1 [6]; Virus Pre-treatment at 37°C, 50 uM): 20 | Peptide inhibition (HSV-1 [6]; Virus Pre-treatment at 37°C, 150 uM): 8.5 | Peptide inhibition (HSV-1 [6]; Virus Pre-treatment at 37°C, 1000 uM): 10 | IC50 (HSV-1 [6]; antiviral activity against HSV-1 on Vero cells): 10 µM

hBD1: human β-defensin 1, wild-type reference peptide (DHYNCVSSGGQCLYSACPIFTKIQGTCYRGKAKCCK; ends and bridges not checked; cysteine pairing not given here; UniProt P60022 33-68, looked up)
antibacterial effect [3]: strong antibacterial effect | antibacterial effect [4]: strong antibacterial effect | antibacterial effect [5]: strong antibacterial effect
